The results in this text go back to US11464782B2, “Method of treating pain or interstitial cystitis using indole compound” (Japan Tobacco Inc., priority 2018, dated 2022).

The test system of this experiment is NGF-induced mechanical hyperalgesia. The experiment is described as follows: NGF-induced mechanical hyperalgesia in rats (pressure analgesy-meter, paw withdrawal threshold). It counts as in vivo, rat. The procedure:
In order to induce a pain-related behavior (withdrawal behavior), NGF was injected into the plantar area of the left hind paw of rats and the thermal latencies/mechanical thresholds were measured. The effects of Compound A on these withdrawal behaviors were investigated. At 2 days before the injection of NGF, the thermal latencies or mechanical thresholds were measured for acclimation to the experimental environment. On the day before injection of NGF, body weights and values of the thermal latencies or mechanical thresholds were obtained. 50 μL of NGF solution was injected intraplantar to left hind paw of rats. 0.5 μg/site of NGF was selected in the evaluation of thermal stimuli and 1 μg/site was selected in that of mechanical stimuli. A monohydrochloride of Compound A (1, 3, or 10 mg/kg) was administered orally at the same time as the NGF injection. The latencies to thermal stimuli were measured at 3 and 6 hours after injection of NGF solution, and the thresholds to mechanical stimuli were measured at 1, 3 and 6 hours after injection of NGF solution. The evaluation was performed as a blind test of each group. The mechanical threshold was measured using a pressure analgesy-meter. A mechanical stimulus (pressure) increased at a constant rate was added to the hind paw, and the pressure under load until animals withdrew its hind paw or vocalization was recorded as the mechanical threshold (mmHg).

The structures appear in SMILES notation.

For `C[C@@H](C(=O)N(C)c1ccc2cc(-c3n[nH]c4c3CCC(C)(C)C4)[nH]c2c1)N1CCOCC1` [Compound A, N-[2-(6,6-dimethyl-4,5,6,7-tetrahydro-1H-indazol-3-yl)-1H-indol-6-yl]-N-methyl-(2S)-2-(morpholin-4-yl)propanamide], the “dose from which significant effects were observed (mechanical threshold)” value (at 6 hours after NGF injection, oral) is ≥ 3 mg/kg. The “effect on the decrease in the mechanical thresholds induced by NGF” value (compared with the vehicle, 1, 3, 10 mg/kg oral, dose related) is recorded as “prevented the decrease in the mechanical thresholds induced by NGF”.
